Measured values reported in US10683292B2, “Purine and 3-deazapurine analogues as choline kinase inhibitors” (NERVIANO MEDICAL SCIENCES S.R.L., priority 2016, dated 2020).

How the values were obtained:
[1] = tested on: MDA-MB-468 breast cancer cell line; experiment: Phosphocholine determination assay (mechanism of action in cells), cell extracts; type: cell-based; settings: 24 h
Protocol: Phosphocholine Determination Assay (Mechanism of Action in Cells)
After 24 h, fresh medium and a compound of general formula (I) were added for further 24 h. At the end of the treatment, the cells were trypsinised, counted and the diameter was determined using a Coulter Counter (Multisizer 3, Beckman). […] Then, 0.7 mL ice-cold absolut EtOH were added (final ratio EtOH/H2O 70:30, v/v). After 24 h at −20° C. the samples were sonicated and centrifuged at 14,000×g for 30 minutes.
Phosphocholine concentration levels were assessed in the supernatants using an Ultra High Pressure Liquid Chromatography system (UPLC®, Waters) coupled with a triple quadrupoles mass spectrometer (TQD, Waters) operating in single reaction monitoring mode (SRM). Analyses were performed using Acquity HSS T3 column 2.1×50 mm column, 1.8 μm particle size. […] Waters TQD triple quad mass spectrometer was equipped with an electrospray ion source operating in the positive mode. Source parameters were set as follows: desolvation gas flow 1000 L/h, cone gas flow 50 L/h; collision gas flow 0.2 mL/min; source temperature 130° C.; desolvation temperature 450° C. Dimethyl glicine (DMG) was added to samples as internal standard at 100 μM final concentration. […] The concentration of PCho in the sample was normalized to the total volume of cells (number cells×volume of single cell considered like a sphere).

hChoKβ FL = molecular target: T1, hChoKβ FL (Homo sapiens, UniProt Q9Y259); experiment: Biochemical kinase inhibition assay (Kinase-Glo Luminescent Kinase Assay) on hChoKβ FL; settings: ATP 5 μM, choline 20 μM, 60 minutes at rt; read-out: IC50 ChoKβ
T1 construct: hChoKβ full length (FL), corresponding to aminoacids 2-395; GST (N, cleaved yes); Prescission Protease recognition site (N, cleaved yes); made in house; host or cells: Escherichia coli BL21pLysS (DE3)
T1 sequence (Q9Y259 2-395): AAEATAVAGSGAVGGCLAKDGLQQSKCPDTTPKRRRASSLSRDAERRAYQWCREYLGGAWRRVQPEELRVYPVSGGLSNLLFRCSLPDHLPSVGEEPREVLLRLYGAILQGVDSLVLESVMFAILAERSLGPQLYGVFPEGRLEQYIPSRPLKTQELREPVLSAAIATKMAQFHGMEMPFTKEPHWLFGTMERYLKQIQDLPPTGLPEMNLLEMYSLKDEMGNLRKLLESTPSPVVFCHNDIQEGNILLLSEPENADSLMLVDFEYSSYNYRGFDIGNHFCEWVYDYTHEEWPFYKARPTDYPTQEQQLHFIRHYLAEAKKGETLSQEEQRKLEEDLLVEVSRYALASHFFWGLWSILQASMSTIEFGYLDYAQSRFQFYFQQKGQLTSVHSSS
Protocol: (§1) The biochemical activity of compounds against Δ49N-ChoKα and ChoKβ FL were determined using the Kinase-Glo™ Luminescent Kinase Assay (Promega cat. V6711).
(§2) Compounds were 3-fold serially diluted from 10 to 0.0005 μM, then incubated for 60 minutes at rt in the presence of ATP 5 μM, choline (5 μM for ChoKα and 20 μM for ChoKβ) and enzyme in a final volume of 19 μL of kinase buffer (50 mM Hepes pH 7.5, 10 mM MgCl2, 1 mM DTT, 3 μM Na3VO4 and 0.2 mg/mL BSA). The final concentration of DMSO was 1%.
(§3) At the end of the incubation, an amount of 19 μL of KinaseGlo Reagent was added to each well to stop the reaction and after 30 minutes the luminescence signal was measured using ViewLux reader (Perkin Elmer).
(§4) The data per each molecule are analyzed by an internally customized version of the SW package “Assay Explorer” which provides sigmoidal fittings of the ten-dilution curves for IC50 determination using a 4 parameter logistic equation: y=bottom+(top−bottom)/(1+10^((log IC50−x)*slope)) where x is the logarithm of the inhibitor concentration, y is the response; y starts at bottom and goes to top with a sigmoid shape.

[2] = tested on: MDA-MB-468 breast cancer cell line; experiment: Phosphocholine determination in cell medium culture (cell supernatants); type: cell-based; settings: compound 2 μM
Protocol: For the determination of phosphocholine in cells, extracts were prepared according to ref. Cancer Res., 2005, 65, 9369-9376 with some modifications. MDA-MB-468 breast cancer cell line was plated at 1×10^6 cells in 10 cm petri dish culture in RPMI, 10% FCS culture medium. After 24 h, fresh medium and a compound of general formula (I) were added for further 24 h. At the end of the treatment, the cells were trypsinised, counted and the diameter was determined using a Coulter Counter (Multisizer 3, Beckman). Cells were washed twice with ice-cold physiologic saline solution and 2×10^6 cells resuspended in 0.3 mL ice-cold twice-distilled water. […]
Phosphocholine concentration levels were assessed in the supernatants using an Ultra High Pressure Liquid Chromatography system (UPLC®, Waters) coupled with a triple quadrupoles mass spectrometer (TQD, Waters) operating in single reaction monitoring mode (SRM). […] The monitored transitions were m/z 184.00 to 85.7 (collision energy 24 eV) for phosphocholine and m/z 103.0 to 57.5 (collision energy 13 eV) for DMG. […]
For the determination of phosphocholine in cell medium culture, cell culture supernatants (500 μL) were denatured by adding 100 μL of trichloroacetic acid (TCA) 1M containing dimethyl glicine (DMG) (100 μM), used as internal standard. […] The supernatants were subsequently analyzed for phosphocholine determination.

Δ49N-hChoKα = molecular target: T2, Δ49N-hChoKα (Homo sapiens, UniProt P35790); experiment: Biochemical kinase inhibition assay (Kinase-Glo Luminescent Kinase Assay) on Δ49N-hChoKα; settings: ATP 5 μM, choline 5 μM, 60 minutes at rt; read-out: IC50 ChoKα
T2 construct: cDNA fragment 362-1534, corresponding to aminoacids 50-457; GST (N, cleaved yes); Prescission Protease recognition site (N, cleaved yes); made in house; host or cells: Escherichia coli BL21pLysS (DE3)
T2 sequence (P35790 50-457, stated change not applied): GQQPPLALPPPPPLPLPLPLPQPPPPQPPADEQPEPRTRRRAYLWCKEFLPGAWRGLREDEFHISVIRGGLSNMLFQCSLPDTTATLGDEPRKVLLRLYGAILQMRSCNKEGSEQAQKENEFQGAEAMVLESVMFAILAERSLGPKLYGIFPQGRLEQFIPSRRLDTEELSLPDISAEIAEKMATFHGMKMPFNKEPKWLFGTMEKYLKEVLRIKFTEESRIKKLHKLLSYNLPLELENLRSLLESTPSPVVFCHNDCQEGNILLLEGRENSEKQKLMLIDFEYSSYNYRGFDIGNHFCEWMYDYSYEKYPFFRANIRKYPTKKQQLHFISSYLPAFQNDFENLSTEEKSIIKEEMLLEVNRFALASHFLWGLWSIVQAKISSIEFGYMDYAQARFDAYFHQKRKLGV
Protocol: as §1, §2, §3, §4

| Compound | IC50 (hChoKβ FL) | IC50 (Δ49N-hChoKα) | other results |
| --- | --- | --- | --- |
| CN1CCc2nc(NC(=O)[C@H]3CC[C@@H](n4cnc5c(N)nc(F)nc54)CC3)sc2C1 [cpd 179, cis-4-(6-amino-2-fluoro-9H-purin-9-yl)-N-(5-methyl-4,5,6,7-tetrahydro[1,3]thiazolo[5,4-c]pyridin-2-yl)cyclohexanecarboxamide] | – | – | [Phosphocholine] in MDA-MB-468 cell extracts ([1]; compound 0.08 μM): 6.40 mM; [Phosphocholine] in MDA-MB-468 cell extracts ([1]; compound 0.4 μM): 3.27 mM; [Phosphocholine] in MDA-MB-468 cell extracts ([1]; compound 2 μM): 0.69 mM |
| Nc1nc(Cl)nc2c1ncn2[C@H]1CC[C@@H](C(=O)Nc2ncc(Cl)s2)CC1 [cpd 114, cis-4-(6-amino-2-chloro-9H-purin-9-yl)-N-(5-chloro-1,3-thiazol-2-yl)cyclohexanecarboxamide] | 4690 nM | 34 nM | inhibition at 2 µM ([2]; Homo sapiens, MDA-MB-468, vs untreated control): 66%; [Phosphocholine] in MDA-MB-468 cell supernatants [2]: 2.50 µM; inhibition at 0.4 µM ([1]; Homo sapiens, MDA-MB-468, compound 0.4 μM, vs untreated control): 37%; inhibition at 2 µM ([1]; Homo sapiens, MDA-MB-468, compound 2 μM, vs untreated control): 76%; [Phosphocholine] in MDA-MB-468 cell extracts ([1]; compound 0.4 μM): 5.21 mM; [Phosphocholine] in MDA-MB-468 cell extracts ([1]; compound 2 μM): 1.98 mM |
| COc1cccc(NC(=O)N[C@H]2CC[C@@H](n3cnc4c(N)nc(Cl)nc43)CC2)c1 [cpd 197, 1-[cis-4-(6-amino-2-chloro-9H-purin-9-yl)cyclohexyl]-3-(3-methoxyphenyl)urea] | 6090 nM | 306 nM | – |
| COc1cccc(NC(=O)[C@H]2CC[C@@H](n3cnc4c(N)nc(-c5ccc(C(=O)Nc6ccc(CN7CCC(N(C)C)CC7)cc6)cc5)nc43)CC2)c1 [cpd 33, 4-(6-amino-9-{cis-4-[(3-methoxyphenyl)carbamoyl]cyclohexyl}-9H-purin-2-yl)-N-(4-{[4-(dimethylamino)piperidin-1-yl]methyl}phenyl)benzamide] | 4570 nM | 21 nM | – |
| COc1cccc(NC(=O)[C@H]2CC[C@@H](n3cnc4c(N)nc(OC)nc43)CC2)c1 [cpd 83, cis-4-(6-amino-2-methoxy-9H-purin-9-yl)-N-(3-methoxyphenyl)cyclohexanecarboxamide] | > 10000 nM | 425 nM | – |
| Nc1nc2ccc(OC(=O)[C@H]3CC[C@@H](n4cnc5c(N)nc(Cl)nc54)CC3)cc2s1 [cpd 159, 2-amino-1,3-benzothiazol-6-yl cis-4-(6-amino-2-chloro-9H-purin-9-yl)cyclohexanecarboxylate] | 7040 nM | 65 nM | – |
| NC(=O)CN1CCc2nc(NC(=O)[C@H]3CC[C@@H](n4cnc5c(N)nc(Cl)nc54)CC3)sc2C1 [cpd 196, cis-4-(6-amino-2-chloro-9H-purin-9-yl)-N-[5-(2-amino-2-oxoethyl)-4,5,6,7-tetrahydro[1,3]thiazolo[5,4-c]pyridin-2-yl]cyclohexanecarboxamide] | > 10000 nM | 26 nM | – |
